The source of these data is patent publication US20060211736A1, “GLUTARIMIDE-CONTAINING POLYKETIDE ANALOGS AND METHODS THEREOF” (Wisconsin Alumni Research Foundation, priority 2005, published 2006).

Structures are written as SMILES.

A short description of series [1]: stability in organic solvents and under fermentation condition (HPLC, 1H NMR). It is filed as physicochemical. The following applies: in CHCl3, DMSO, MeOH, and MeOH-H2O at 25° C. for 90 days. The procedure: (§1) To verify the identity of the shunt metabolites, purified 4 (30 mg) was incubated in H2O-DMSO (9:1), and the resultant products were isolated and subjected to spectroscopic analysis.
Seed medium (50 mL) in a 250-mL flask was inoculated with spores of S. platensis and incubated on a rotary shaker at 250 rpm and 28° C. for 30 hr. The resultant seed culture (25 mL) was then inoculated into production medium (600 mL containing 70 g/L XAD-16 resins) in a 2-L flask, which was incubated on a rotary shaker at 250 rpm and 28° C. for 2 days. The combined production culture broth (7 L) was filtered through gauze sponges to capture the XAD-16 resins. The resins were washed with Milli-Q H2O, dried at room temperature, and eluted with anhydrous ethanol. The ethanol extract was evaporated under reduced pressure to yield an oily residue. The residue was first analyzed by HPLC-UV (PDA) and LC-ESI-MS to confirm the presence of the various congeners of 110. Although they can survive during fermentation and be stabilized in H2O upon absorption to resins, 110 and its congeners 112-119 undergo rapid rearrangement in aqueous solution. They are stable in most organic solvents such as CHCl3, EtOAc, hexane, and absolute ethanol at room temperature. Consequently, isolation of these metabolites was performed mainly by repeated silica gel flash column chromatography using two different solvent systems (CHCl3/MeOH and EtOAc/hexane).

The subject of series [2] is K-ras transformed NIH/3T3 mouse fibroblasts. Particulars: 0.4 ∝g/ml; cited from earlier work.
Series [3] is described as follows: stability in water / H2O-mediated rearrangement (HPLC). It is filed as physicochemical. The procedure: as §1
Large-scale Conversion of 4 to 1, 2, 3 and 5 in H2O. The purity of compound 4 was first analyzed by HPLC showing a single peak (purity >98%) and then confirmed by ^1H NMR spectrum (in CDCl3) showing no detectable contaminant. A solution of 4 (30 mg in 6 ml of DMSO) was then added to 55 ml Milli-Q H2O, and the resultant mixture was incubated at 37° C. for 2 hours. The reaction mixture was evaporated under high vacuo. The residue was subjected to silica gel flash column chromatography eluted with CHCl3-MeOH (from 10:0 to 9.4:0.6) to yield pure 1 (8 mg), 3 (9 mg), and a mixture of 2 and 5. The latter was further resolved by semi-preparative to afford pure 2 (6 mg) and 5 (4 mg). The ESI−MS, ^1H NMR and optical rotation data of compounds 1, 2, 3, and 5 were identical to those obtained from the corresponding compounds isolated from fermentation (the ^13C NMR spectrum of 1 was also measured, which is identical to that of 1 obtained from fermentation).
H2O-mediated rearrangement of 112-114 and 117-119. […]
Regioselective 1,4-reduction to access the reduced NK30424 scaffold. […] The reactions for 203, 209, and 210 were complete in 2, 8, and 12 hrs, respectively, as monitored by HPLC (yields>80%). […]

The next series concerns HCT-116 cells. The following applies: same assay conditions for both substances; cited from earlier work.
In a further series the test system is experimental tumors. Particulars: efficacy comparable to or better than MTM C; cited from earlier work.

Turning to `CO[C@H]1/C=C/CC/C=C/C(=O)O[C@H]([C@H](C)C(=O)CCCC2CC(=O)NC(=O)C2)/C(C)=C\[C@@H](C)[C@@H]1O` [Compound 1, Migrastatin], the “change of solutions upon HPLC and 1H NMR analyses” value (“change” below) in series [1] is “no detectable change”.
Take `CO[C@@H](/C=C/CC/C=C/C(=O)O)[C@@H](O)[C@H](C)/C=C(\C)[C@H](O)[C@H](C)C(=O)CCCC1CC(=O)NC(=O)C1` [Compound 2, Dorrigocin A]: the “reduction of the number of foci” value in series [2] is 74%. Moreover, the “change” value in series [1] is “no detectable change”.
Consider `CO[C@@H](/C=C/CC/C=C/C(=O)O)[C@@H](O)[C@H](C)[C@@H](O)/C(C)=C/[C@H](C)C(=O)CCCC1CC(=O)NC(=O)C1` [Compound 3, Dorrigocin B], for which, in series [1], the “change” value was “no detectable change”.
With `CO[C@H]1/C=C/CC/C=C/C(=O)O[C@@H](/C(C)=C/[C@H](C)C(=O)CCCC2CC(=O)NC(=O)C2)[C@@H](C)[C@@H]1O` [Compound 4, iso-Migrastatin], in series [3], the “stability in aqueous solution (H2O-mediated rearrangement)” value was “rapid conversion”.
With `CO[C@@H](/C=C/CC/C=C/C(=O)O)[C@@H](O)[C@H](C)/C=C(\C)[C@@H](O)[C@H](C)C(=O)CCCC1CC(=O)NC(=O)C1` [Compound 5, 13-epi-Dorrigocin A], the “change” value in series [1] is given as “no detectable change”.
Consider `C/C(=C\[C@H](C)C(=O)C[C@H](O)CC1CC(=O)NC(=O)C1)[C@@H]1OC(=O)/C=C/CC/C=C/C=C\[C@@H]1C` [Compound 104, lactimidomycin], for which the “IC50 value with HCT-116 cells” value with HCT-116 cells is 0.0014 µg/mL. Further, the “survival time of tumor-bearing mice” value in the series with experimental tumors was “prolonged the survival time”.
As for `CO[C@@]12[C@H](COC(N)=O)C3=C(C(=O)C(C)=C(N)C3=O)N1C[C@@H]1N[C@@H]12` [MTM C], the “IC50 value with HCT-116 cells” value in the series with HCT-116 cells is 0.8 µg/mL.
